Measurements from ChEMBL document CHEMBL1201862, “PubChem BioAssay data set” (2004).
Calls of active or inactive are those of the source.

Assays:
[1] = CRF-BP/CRF-R2 complex antagonists, dose response, cell-based, uHTS hits, 384-well (AID 651639); assay type: functional, Homo sapiens; details: read-out: IC50_Mean
[2] = target: T1, Corticotropin-releasing factor receptor 2/Corticotropin-releasing factor-binding protein (Homo sapiens, UniProt P24387+Q13324); experiment: Dose Response confirmation of uHTS hits for small molecule antagonists of the CRF-binding protein and CRF-R2 receptor complex.; assay type: functional; details: read-out: IC50_Mean
T1 sequence (Q13324 whole entry): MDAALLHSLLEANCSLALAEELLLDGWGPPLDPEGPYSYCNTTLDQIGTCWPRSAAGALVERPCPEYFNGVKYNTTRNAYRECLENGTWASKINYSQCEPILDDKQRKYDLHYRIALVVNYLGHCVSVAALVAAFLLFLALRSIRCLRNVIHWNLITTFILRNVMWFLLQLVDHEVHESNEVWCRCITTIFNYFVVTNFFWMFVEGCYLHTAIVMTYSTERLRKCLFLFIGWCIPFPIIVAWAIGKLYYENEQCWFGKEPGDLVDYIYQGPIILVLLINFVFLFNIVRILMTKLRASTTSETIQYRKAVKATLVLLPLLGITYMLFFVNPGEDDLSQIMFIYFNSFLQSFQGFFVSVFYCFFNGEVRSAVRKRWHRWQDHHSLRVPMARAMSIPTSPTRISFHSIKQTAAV
T1 sequence (P24387 whole entry): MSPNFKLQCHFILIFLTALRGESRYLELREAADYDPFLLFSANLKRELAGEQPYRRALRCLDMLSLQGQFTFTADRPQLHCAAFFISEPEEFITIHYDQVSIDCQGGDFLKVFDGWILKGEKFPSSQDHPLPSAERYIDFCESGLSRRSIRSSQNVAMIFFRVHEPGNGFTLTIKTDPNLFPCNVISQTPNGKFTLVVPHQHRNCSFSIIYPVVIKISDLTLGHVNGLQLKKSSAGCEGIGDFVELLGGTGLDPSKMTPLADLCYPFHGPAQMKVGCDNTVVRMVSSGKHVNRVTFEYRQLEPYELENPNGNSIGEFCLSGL

[3] = target: T1, Corticotropin-releasing factor receptor 2/Corticotropin-releasing factor-binding protein; experiment: activators of CRF receptor 2 with binding protein – uHTS hits, confirmation (AID 602473); assay type: functional; details: read-out: EC50_Mean
Protein Wnt-3a = Protein Wnt-3a (Mus musculus, UniProt P27467); experiment: Wnt3a-driven reporter signaling inhibition, dose response, selectivity assay for Gli-SUFU antagonist project, Wnt-LIGHT cells, luminescence (AID 651570); assay type: functional; details: read-out: IC50_Mean;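 further: Wnt-LIGHT reporter cells stimulated with conditioned medium from Wnt3a-producing cells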
[4] = control 3'UTR Renilla luciferase suppression, dose response, counter-screen for Shn3 inhibitor project, cell-based, Clone20-Shn3RL, cherry-picked (AID 624133); assay type: functional
[5] = Shn3 3'UTR reporter inhibitors, dose response, cell-based, Clone20 osteoblasts, firefly luciferase, cherry-picked (AID 624132); assay type: functional;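 further: firefly luciferase luminescence from reporter carrying the Shn3 3'UTR in osteoblasts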
CHO-K1 = experiment: (§1) Counterscreen for antagonists of the orexin 1 receptor (OX1R; HCRTR1): Homogeneous time resolved fluorescence (HTRF)-based cell-based dose response assay to identify antagonists of the parental CHO-K1 cell line. [Related pubchem assays (depositor defined):AID434989, AID435008, AID463079, AID485270, AID492963, AID492964, AID492965, AID493232, AID504699, AID504701]; assay type: functional; details: Cricetulus griseus
Orexin receptor type 2 [6] = target: T2, Orexin receptor type 2 (Homo sapiens, UniProt O43614); experiment: Counterscreen assay for antagonists of the orexin 1 receptor (OX1R; HCRTR1): Fluorescence-based cell-based dose response assay for antagonists of the orexin 2 receptor (OX2R; HCRTR2), run by assay provider.; assay type: functional
T2 sequence (O43614 whole entry): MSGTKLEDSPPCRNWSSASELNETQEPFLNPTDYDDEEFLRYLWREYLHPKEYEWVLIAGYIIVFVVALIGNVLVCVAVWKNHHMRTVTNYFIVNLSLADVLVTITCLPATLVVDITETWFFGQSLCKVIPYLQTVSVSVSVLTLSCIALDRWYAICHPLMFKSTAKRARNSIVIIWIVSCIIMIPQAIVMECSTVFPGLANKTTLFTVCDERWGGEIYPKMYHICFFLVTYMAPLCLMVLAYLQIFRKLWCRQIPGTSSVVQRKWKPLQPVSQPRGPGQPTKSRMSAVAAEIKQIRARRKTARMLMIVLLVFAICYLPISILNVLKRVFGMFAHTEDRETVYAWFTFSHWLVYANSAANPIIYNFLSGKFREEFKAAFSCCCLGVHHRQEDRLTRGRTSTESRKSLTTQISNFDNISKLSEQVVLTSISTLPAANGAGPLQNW

[7] = as §1, with “Fluorescence-based” for “Homogeneous time resolved fluorescence (HTRF)-based”, “cell-based high throughput” for “cell-based”, “CHO” for “CHO-K1”; assay type: functional
Orexin receptor type 2 [8] = target: T2, Orexin receptor type 2; experiment: Counterscreen assay for antagonists of the orexin 1 receptor (OX1R; HCRTR1): Homogeneous Time Resolved Fluorescence (HTRF)-based cell-based dose response assay for antagonists of the orexin 2 receptor (OX2R; HCRTR2), run by assay provider.; assay type: functional
[9] = target: T3, Orexin/Hypocretin receptor type 1 (Homo sapiens, UniProt O43613); experiment: (§2) Fluorescence-based cell-based high throughput dose response assay for antagonists of the orexin 1 receptor (OX1R; HCRTR1). [Related pubchem assays (depositor defined):AID434989, AID435008, AID463079, AID485270, AID492963, AID492964, AID492965, AID493232, AID504717, AID504718]; assay type: functional
T3 sequence (O43613 whole entry): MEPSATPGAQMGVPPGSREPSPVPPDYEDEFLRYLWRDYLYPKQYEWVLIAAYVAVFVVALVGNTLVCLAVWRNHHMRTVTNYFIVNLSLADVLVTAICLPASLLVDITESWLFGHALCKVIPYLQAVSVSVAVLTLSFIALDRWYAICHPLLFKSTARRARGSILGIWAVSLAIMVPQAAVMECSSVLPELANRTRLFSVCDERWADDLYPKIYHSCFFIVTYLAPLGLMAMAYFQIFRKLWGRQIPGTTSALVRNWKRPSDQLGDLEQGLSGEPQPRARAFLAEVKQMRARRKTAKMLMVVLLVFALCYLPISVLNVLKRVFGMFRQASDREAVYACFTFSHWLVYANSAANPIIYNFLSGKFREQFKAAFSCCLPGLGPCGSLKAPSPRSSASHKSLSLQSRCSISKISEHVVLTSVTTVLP

[10] = target: T3, Orexin/Hypocretin receptor type 1; experiment: as §2, with “Homogeneous Time Resolved Fluorescence (HTRF)-based” for “Fluorescence-based”; assay type: functional
[11] = Luminescence-based cell-based high throughput dose response assay to identify activators of the DAF-12 from the parasite S. stercoralis (ssDAF-12).; assay type: functional
[12] = target: T4, Oxysterols receptor LXR-beta (Homo sapiens, UniProt P55055); experiment: LXR agonists, Gal4 luciferase reporter, dose response, counter-screen for ssDAF-12 agonist project, cell-based, luminescence, HEK293, S. stercoralis campaign (AID 720737); assay type: functional; details: read-out: IC50 (the source's name)
T4 sequence (P55055 whole entry): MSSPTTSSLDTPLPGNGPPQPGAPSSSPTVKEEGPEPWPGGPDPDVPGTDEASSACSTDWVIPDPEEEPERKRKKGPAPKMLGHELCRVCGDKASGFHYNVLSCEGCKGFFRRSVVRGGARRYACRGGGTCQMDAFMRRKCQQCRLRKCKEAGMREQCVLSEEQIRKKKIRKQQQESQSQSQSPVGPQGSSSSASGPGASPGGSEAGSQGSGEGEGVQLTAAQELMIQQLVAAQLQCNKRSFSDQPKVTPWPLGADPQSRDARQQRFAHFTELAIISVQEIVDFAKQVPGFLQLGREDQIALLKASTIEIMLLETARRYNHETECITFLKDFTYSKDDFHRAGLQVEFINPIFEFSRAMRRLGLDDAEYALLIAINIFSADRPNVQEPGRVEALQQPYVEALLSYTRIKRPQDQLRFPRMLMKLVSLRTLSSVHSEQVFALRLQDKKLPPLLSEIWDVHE

[13] = target: T5, Replicative DNA helicase DnaB (Mycobacterium tuberculosis, UniProt P9WMR3); experiment: DnaB intein splicing inhibitors, dose response, biochemical, cell-free fluorescence (AID 449749); assay type: functional
T5 sequence (P9WMR3 whole entry): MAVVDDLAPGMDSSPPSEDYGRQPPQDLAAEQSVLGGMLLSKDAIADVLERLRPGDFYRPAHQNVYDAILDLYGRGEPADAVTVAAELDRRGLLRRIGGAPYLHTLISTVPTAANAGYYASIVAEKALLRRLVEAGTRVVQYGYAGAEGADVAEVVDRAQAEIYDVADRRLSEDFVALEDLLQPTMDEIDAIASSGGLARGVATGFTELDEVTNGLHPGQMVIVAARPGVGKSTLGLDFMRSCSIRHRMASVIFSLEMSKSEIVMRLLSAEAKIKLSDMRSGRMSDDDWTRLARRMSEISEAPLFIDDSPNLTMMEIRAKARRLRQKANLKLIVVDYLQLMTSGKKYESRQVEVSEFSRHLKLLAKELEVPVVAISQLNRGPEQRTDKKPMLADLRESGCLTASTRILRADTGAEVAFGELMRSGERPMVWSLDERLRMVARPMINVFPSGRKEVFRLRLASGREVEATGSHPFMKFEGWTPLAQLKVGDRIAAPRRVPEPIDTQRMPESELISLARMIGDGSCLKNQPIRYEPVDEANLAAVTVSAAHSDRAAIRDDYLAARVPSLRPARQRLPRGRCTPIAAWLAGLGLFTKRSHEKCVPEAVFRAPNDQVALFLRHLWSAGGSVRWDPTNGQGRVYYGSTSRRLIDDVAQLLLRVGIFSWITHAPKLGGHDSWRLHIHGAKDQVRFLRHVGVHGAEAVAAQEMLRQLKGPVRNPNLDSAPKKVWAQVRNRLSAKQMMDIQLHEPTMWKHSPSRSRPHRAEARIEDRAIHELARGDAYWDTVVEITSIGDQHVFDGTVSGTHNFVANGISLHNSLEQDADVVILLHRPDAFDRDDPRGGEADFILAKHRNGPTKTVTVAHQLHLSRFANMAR

[14] = A Cell Based Secondary Assay to Explore Cytotoxicity in THP-1 Cells of Compounds that Modulate Mycobacterium tuberculosis in Media Containing Glycerol versus Media without Glycerol (2).; assay type: functional
[15] = Vero cell cytotoxicity, cytotoxicity control for M. tuberculosis inhibitor project, purified and synthesized samples, set 3 (AID 504684); assay type: functional
Protein RecA = target: T6, Protein RecA (Mycobacterium tuberculosis, UniProt P9WHJ3); experiment: Fluorescence Cell-Free Homogeneous Dose Retest to Identify Inhibitors of RecA-Intein Splicing Activity. [Related pubchem assays (depositor defined):AID2097, AID2223, AID489010, AID492950]; assay type: functional
T6 sequence (P9WHJ3 whole entry): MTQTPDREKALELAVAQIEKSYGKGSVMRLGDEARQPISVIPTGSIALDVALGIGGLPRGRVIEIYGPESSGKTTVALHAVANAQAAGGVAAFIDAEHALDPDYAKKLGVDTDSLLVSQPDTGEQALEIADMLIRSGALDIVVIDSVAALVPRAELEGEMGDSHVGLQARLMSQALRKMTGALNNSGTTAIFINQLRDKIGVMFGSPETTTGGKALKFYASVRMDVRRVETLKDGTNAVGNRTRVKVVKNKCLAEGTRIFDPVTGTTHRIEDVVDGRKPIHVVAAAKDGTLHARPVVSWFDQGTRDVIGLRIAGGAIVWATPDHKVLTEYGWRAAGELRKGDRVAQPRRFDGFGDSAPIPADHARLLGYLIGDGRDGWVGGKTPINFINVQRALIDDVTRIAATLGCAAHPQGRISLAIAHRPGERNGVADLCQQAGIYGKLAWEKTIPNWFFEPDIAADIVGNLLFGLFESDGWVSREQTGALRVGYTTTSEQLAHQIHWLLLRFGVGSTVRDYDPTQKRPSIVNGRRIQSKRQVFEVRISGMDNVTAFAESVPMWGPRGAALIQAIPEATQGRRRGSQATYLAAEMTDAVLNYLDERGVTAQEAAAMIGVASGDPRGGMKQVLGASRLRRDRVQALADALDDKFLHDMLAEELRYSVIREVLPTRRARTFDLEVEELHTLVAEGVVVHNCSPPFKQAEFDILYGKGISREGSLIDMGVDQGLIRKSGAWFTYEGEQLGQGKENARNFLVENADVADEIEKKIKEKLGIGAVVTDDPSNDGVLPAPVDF

[16] = target: T7, Probable nicotinate-nucleotide adenylyltransferase (Staphylococcus aureus (strain N315), UniProt P65502); assay type: functional, Staphylococcus aureus subsp. aureus N315;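 on IC50 Mean: confirmatory dose-response retesting of NadD inhibitor hits first found in an ultra-high-throughput screen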
[17] = target: T7, Probable nicotinate-nucleotide adenylyltransferase; assay type: functional, Staphylococcus aureus subsp. aureus N315; details: read-out: IC50_Mean

T7 sequence (P65502 whole entry): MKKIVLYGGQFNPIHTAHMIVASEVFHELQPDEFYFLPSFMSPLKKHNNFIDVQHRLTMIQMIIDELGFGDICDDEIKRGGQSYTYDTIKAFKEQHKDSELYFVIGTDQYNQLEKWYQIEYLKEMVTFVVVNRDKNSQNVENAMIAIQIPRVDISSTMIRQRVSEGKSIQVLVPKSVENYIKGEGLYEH
Protein Wnt-3a, sequence (P27467 whole entry): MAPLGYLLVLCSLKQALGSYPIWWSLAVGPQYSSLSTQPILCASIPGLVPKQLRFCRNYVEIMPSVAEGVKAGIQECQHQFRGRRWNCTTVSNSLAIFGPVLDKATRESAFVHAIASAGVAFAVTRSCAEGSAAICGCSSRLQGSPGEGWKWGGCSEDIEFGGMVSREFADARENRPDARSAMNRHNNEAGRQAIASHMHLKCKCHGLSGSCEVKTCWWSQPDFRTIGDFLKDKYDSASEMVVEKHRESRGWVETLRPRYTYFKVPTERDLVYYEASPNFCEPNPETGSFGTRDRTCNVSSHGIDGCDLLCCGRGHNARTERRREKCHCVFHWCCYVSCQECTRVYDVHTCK

## COC(=O)CSC1=C(C#N)C(c2ccc(Cl)cc2)C(C(=O)OC)C(=O)N1 (centres undefined)
[1]
  IC50: 13.4 µM (active)
[2]
  IC50: 24 µM (active)
[3]
  EC50: > 53 µM (inactive)

## C=CCOc1nc2c(c(=O)n(C)c(=O)n2C)n1Cc1ccc(Cl)cc1
Protein Wnt-3a
  IC50: 1.88 µM (active)
[4]
  AC50: 2.02 µM (active)
[5]
  AC50: 1.03 µM (active)

## COc1ccc(-c2nn3c(-c4ccccc4)nnc3s2)cc1
CHO-K1
  IC50: > 66.2 µM (inactive)
Orexin receptor type 2 [6]
  IC50: > 88.8 µM (inactive)
[7]
  IC50: > 49.8 µM (inactive)
Orexin receptor type 2 [8]
  IC50: > 50 µM (inactive)
[9]
  IC50: > 5.53 µM (active)
[10]
  IC50: 2.44 µM (active)

## O=C(NC(=S)Nc1c(Cl)ccc2nsnc12)c1ccccc1F
[1]
  IC50: > 20 µM (inactive)
[2]
  IC50: 2.88 µM (active)
[3]
  EC50: > 53 µM (inactive)

## Cc1ccc(NC(=O)c2ccc3ccccc3n2)nc1
CHO-K1
  IC50: > 66.2 µM (inactive)
Orexin receptor type 2 [6]
  IC50: > 88.8 µM (inactive)
[11]
  IC50: > 67.5 µM (inactive)
[12]
  EC50: > 67.5 µM (inactive)
[7]
  IC50: > 49.7 µM (inactive)
Orexin receptor type 2 [8]
  IC50: 2.35 µM (active)
[9]
  IC50: 10.4 µM (inactive)
[10]
  IC50: 1.64 µM (active)

## O=C1C(Br)=Cc2cccc3cccc1c23
[13]
  AC50: > 380 µM (inactive)
[14]
  CC50: > 100 µM (active)
[15]
  CC50: 74.6 µM (active)
Protein RecA
  EC50: 0.581 µM (active)

## NC(CSC1(c2ccc(Cl)cc2)c2ccccc2-c2ccccc21)C(=O)O (centres undefined)
[16]
  IC50: 11.7 µM (active)
[17]
  IC50: 34.2 µM (active)
